# Columns and labels:
# [1] = Cohort study of multiple myeloma patients on IV BP: risk factors for BONJ (univariate and multivariate logistic regression); type: in vivo, human
# Protocol: Multiple myeloma patients who were on intravenous BP (zoledronate or pamidronate) were recruited to voluntarily participate in this Institution Review Board (IRB) approved study. These patients signed informed consents and were followed routinely in the outpatient clinic. In addition to MM treatments, patients received either pamidronate 90mg or zoledronate 4mg IV monthly. Demographic and clinical information were verified from reviewing the medical records and tabled for analysis. Certain life style factors such as smoking at any time in the past, as well as certain co-morbidities such as diabetes mellitus, and prior drugs used were among the data collected on all patients.
# Patients were considered to have BONJ if all of the following three characteristics are present (American Association of Oral and Maxillofacial Surgeons position paper, J Oral Maxillofac Surg, 65(3):369-76, 2007): 1) Current or previous treatment with a bisphosphonate; 2) Exposed bone in the maxillofacial region that has persisted for more than eight weeks; and 3) No history of radiation therapy to the jaws. […]
# Baseline characteristics were compared by student's t-test or chi-square tests as appropriate. Allele frequencies deviations from Hardy-Weinberg Equilibrium (HWE) were assessed using chi-square tests with one degree of freedom. […]
# [2] = Chart review of BONJ incidence in bisphosphonate-treated cancer patients; type: in vivo, human; conditions: outpatient bone marrow transplant clinic, all patients had myeloma; pamidronate only
# Excerpt: Medical and dental charts at the University of Florida (UF) and the associated Veterans Administration Medical Center (VAMC) were reviewed. […] There were 21 males. […] Fourteen patients had modest increases in their serum creatinine concentrations. The average number of previous chemo/radiotherapy regimens was 3.5. […] Primary disease status was as follows: 12 patients in clinical remission, 5 with stable disease and 10 with progressive disease. Eight patients received statin therapy and 6 had diabetes mellitus. The median length of treatment with bisphosphonate (BP) before the diagnosis of BONJ was 28 months. BONJ involved the mandible in 21 patients, maxilla in 4 and both in 2 patients. The most frequent presentation was pain, swelling, and exposed bone (FIG. 1). […] The BONJ incidence differed among the 3 centers where these patients were treated. […] The incidence in the VAMC was 4.2% while the incidence in the Cancer Center clinic at UF was 1.7%. In the latter two groups, patients had mostly solid tumors. The results described herein are consistent with the reports of increased incidence of BONJ with greater duration of therapy and that myeloma patients are more likely to develop the complication than solid tumor patients.
smiles,measurement,setting,value
O=C1CCC(N2C(=O)c3ccccc3C2=O)C(=O)N1 (stereo not drawn) [Thalidomide],Odds Ratio for BONJ,"[1]; multivariate logistic regression analysis of potential risk factors, MM patients on IV BP",0.106
NCCC(O)(P(=O)(O)O)P(=O)(O)O [pamidronate],BONJ incidence,[2],4%
O=P(O)(O)C(O)(Cn1ccnc1)P(=O)(O)O [zoledronate],association between BONJ and treatment,"[1]; univariate analysis, persisted in multivariate logistic regression, P=0.00029, 78 MM patients, 12 with BONJ",significant association

# Reference: patent US20130035314A1, “METHODS AND KITS FOR DETECTING RISK FACTORS FOR DEVELOPMENT OF JAW OSTEONECROSIS AND METHODS OF TREATMENT THEREOF” (priority 2010, published 2013)
